What was measured:
A. baumanii = test: Biofilm sterilization by gaseous NO; assay type: cell-based, Acinetobacter baumanii; settings: 20,000 ppm NO, 1 liter/minute, 5, 10, 30, 60 or 120 minutes
Experimental: (§1) A biofilm was established in each well of a 6-well plate and the time of treatment with nitric oxide gas for eradication of the biofilm was tested using the biofilm formation assay described hereinabove.
(§2) Briefly, 3 ml of LB media were placed in each well of 12 6-well plates and then each well was inoculated with 10 μl of stock bacteria (E. Coli or A. baumanii (6 plates for each bacterial type). Plates were incubated with agitation for 5 days at 37° C. to establish a biofilm in each well. The media was removed and each well washed twice with sterile saline.
(§3) Plates with established biofilms (one for each bacterial type) were treated with nitric oxide (20,000 ppm, 1 liter/minute flow rate) for 5, 10, 30, 60 or 120 minutes. Control plates were kept at room temperature, without treatment.
(§4) Three of the six wells for each plate were stained with crystal violet to confirm biofilm formation. The biofilm in the remaining 3 wells of each plate was re-suspended (with 30 seconds sonication) in 5 ml sterile saline. Aliquots of 1, 10 and 100 μl of each sample were plated in compartmentalized (3-section) petri plates.

Pseudomonas aeruginosa = settings: multiple 30 minute treatments of 160 ppm nitric oxide; cited from earlier work
E. coli [1] = test: Sterilization of E. coli-inoculated catheter sections by nitric oxide dosing (CFU count); assay type: cell-based, Escherichia coli; settings: 20,000 ppm NO, 30 cc/minutes
Experimental: Six-mm diameter Folysil® silicone Foley catheters, (catalog no. AA6118; Coloplast® Corp. Minneapolis, Minn., USA) (Folysil® and Coloplast® are registered trademarks of Coloplast A/S, Humlebaek, Denmark) were aseptically cut into 2-cm sections and inoculated by immersion in 2 ml of one of 10^3 CFU/ml, 10^5CFU/ml, or 10^8 CFU/ml E. coli. inocula for 30 minutes. Inoculated catheter sections were subsequently dosed with 20,000 parts per million of nitric oxide (at a flow rate of 30 cc/minutes) during 1, 5, 15, 30, 60 or 120 minutes, using the general procedure I described hereinabove. Control catheter sections were not impregnated with nitric oxide, but were stored in sterile sealed vials.
The nitric oxide-treated and untreated catheter segments were then immersed separately in 2 ml media and then incubated for 8 hours at 37° C. Aliquots of the incubation media were plated and numbers of CFU counted. Bacterial loads were calculated as CFU per ml.
Foley catheters, (catalog no. AA6118; Coloplast® Corp. Minneapolis, Minn., USA) is aseptically cut into 2-cm sections and inoculated by immersion in 2 ml of one of 10^3 CFU/ml, 10^5 CFU/ml, or 10^8 CFU/ml E. coli. inocula for 30 minutes. Inoculated catheter sections are subsequently dosed with nitric oxide using the general procedure II described hereinabove. Control catheter sections are not impregnated with nitric oxide, but are stored in sterile sealed vials.
The nitric oxide-treated and untreated catheter segments are then immersed separately in 2 ml media and incubated for 8 hours at 37° C. Aliquots of the incubation media are plated and numbers of CFU counted. Bacterial loads are calculated as CFU per ml.

E. coli [2] = test: Biofilm sterilization by gaseous NO; assay type: cell-based, Escherichia coli; settings: 20,000 ppm NO, 1 liter/minute, 5, 10, 30, 60 or 120 minutes
Experimental: as §1, §2, §3, §4

Staphylococcus aureus = settings: multiple 30 minute treatments of 160 ppm nitric oxide; cited from earlier work
E. coli [3] = settings: multiple 30 minute treatments of 160 ppm nitric oxide; cited from earlier work
Bacterial vaginosis (BV) = settings: following metronidazole treatment of BV; cited from earlier work

| SMILES | colonies from re-suspended established biofilm (A. baumanii) | decrease in the bacterial load (Pseudomonas aeruginosa) | treatment time after which the catheter segments were sterilized (E. coli [1]; 10^3 bacterial stock) | treatment time after which the catheter segments were sterilized (E. coli [1]; 10^5 bacterial stock) | treatment time after which the catheter segments were sterilized (E. coli [1]; 10^8 bacterial stock) | colonies from re-suspended established biofilm (E. coli [2]) | decrease in the bacterial load (Staphylococcus aureus) | decrease in the bacterial load (E. coli [3]) | cure rate (Bacterial vaginosis (BV)) |
| --- | --- | --- | --- | --- | --- | --- | --- | --- | --- |
| [N]=O [nitric oxide] | no colonies were observed | > 5 log 10 colony forming unit per milliliter (CFU/ml) | 1 min | 15 min | 15 min | no colonies were observed | > 5 log 10 colony forming unit per milliliter (CFU/ml) | > 5 log 10 colony forming unit per milliliter (CFU/ml) |  |
| Cc1ncc([N+](=O)[O-])n1CCO [metronidazole] |  |  |  |  |  |  |  |  | 61% |

Reference: patent publication US20130078298A1, “GASEOUS NITRIC OXIDE-SEQUESTERING PRODUCTS AND PROCESSES OF PREPARING SAME” (Enox Biopharma, Inc, priority 2010, published 2013)
